Source: PMC10794144, “A novel antibiotic class targeting the lipopolysaccharide transporter” (Nature, 2024)
In brackets after ≈: the same amount, converted by molar mass. Like-named read-outs stand apart in the source and are kept apart here.

Columns and labels:
[1] = system: S. aureus ATCC 29213; test: organism not typed
Description: MIC determinations were performed using the broth microdilution method and in line with CLSI guidelines M07 and M100 (refs. [37],[38]). Bacterial inocula were prepared by diluting a 0.5 McFarland suspension in CAMHB or lysogeny broth (LB) specifically for A. baylyi isolates. […] MIC values of all of the tested antibiotics were read as the lowest compound concentration inhibiting bacterial growth by naked eye or beyond which the OD600 ceased to decrease.

[2] = system: C. albicans ATCC 90028; test: microbe, parasite or virus in culture; details: Candida albicans
[3] = system: HEK293 cells; test: Cell-viability assay (CellTiterGlo); assay type: cell-based; details: Homo sapiens, 24 h, 37 °C, 3.125–100 μM, n = 2
Description: Compounds were prepared in serial dilutions (3.125–100 μM in 1% DMSO) and transferred to 384-well plates together with a positive (Staurosporine) and a negative (no compound) control. In total, 25 μl of HEK293 cells (ATCC; verified by short tandem repeat PCR and mycoplasma negative) (50,000 cells per ml) were added in either low-serum-containing (0.5% fetal bovine serum (FBS)) or high-serum-containing (12.5% FBS, 1% BSA) medium (Dulbecco’s modified Eagle medium (DMEM), glucose, L-glutamine). The plates were incubated for 24 h at 37 °C and a mixture of CellTiterGlo and DMEM was added to the plates. After incubation at room temperature, the luminescence signal was read using a BioTeK reader and a calculated IC50 was derived from the data.

[4] = system: E. coli ATCC 25922; test: microbe, parasite or virus in culture
Procedure, shortened: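 Standard broth microdilution per CLSI; diluted 0.5 McFarland inocula in cation-adjusted Mueller-Hinton broth; visual or OD600 endpoint.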

[5] = target: CYP2C9 (Homo sapiens, UniProt P11712); test: CYP inhibition; assay type: in vitro ADME
CYP2C9, sequence (P11712 whole entry): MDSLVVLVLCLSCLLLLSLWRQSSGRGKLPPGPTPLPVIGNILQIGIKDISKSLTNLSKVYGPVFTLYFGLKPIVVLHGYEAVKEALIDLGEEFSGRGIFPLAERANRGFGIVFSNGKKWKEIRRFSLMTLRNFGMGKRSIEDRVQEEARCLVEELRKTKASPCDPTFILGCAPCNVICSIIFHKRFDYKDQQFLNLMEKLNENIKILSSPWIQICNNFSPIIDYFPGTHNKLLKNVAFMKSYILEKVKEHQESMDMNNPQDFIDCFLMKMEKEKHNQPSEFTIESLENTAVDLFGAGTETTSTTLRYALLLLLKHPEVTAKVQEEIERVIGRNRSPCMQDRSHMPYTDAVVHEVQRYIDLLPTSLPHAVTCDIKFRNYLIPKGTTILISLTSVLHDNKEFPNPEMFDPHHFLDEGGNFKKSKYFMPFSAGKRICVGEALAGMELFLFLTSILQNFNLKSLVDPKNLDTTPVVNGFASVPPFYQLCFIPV

[6] = system: C. albicans ATCC 90028; details: 100%
[7] = Staphylococcus aureus, ATCC29213, CAMHB, mode of at least three replicates (RO7036668 one replicate)

## CN1C(=O)[C@H](CCCN)NC(=O)[C@H](CCCN)NCc2ccccc2Sc2ccccc2CNC(=O)[C@@H]1Cc1c[nH]c2ccccc12 [RO7036668]
[1]; Gram-positive bacteria and yeast
  MIC: 32 to 64 µg/mL (≈ 48.8 to 97.6 µM)
[1]; [7]
  MIC: 32 µg/mL (≈ 48.8 µM)
[2]; ATCC90028
  MIC: 64 µg/mL (≈ 97.6 µM)
[3]
  IC50: > 100 µM
[4]; CAMHB, mode of at least three replicates (RO7036668 one replicate)
  MIC: >64 µg/mL
[4]; Escherichia coli, ATCC25922
  MIC: > 64 µg/mL
[5]
  CYP inh. (2C9): > 50 µM

## C[C@@H](O)[C@H]1C(=O)N2C(C(=O)O)=C(S[C@@H]3CN[C@H](C(=O)N(C)C)C3)[C@H](C)[C@H]12 [meropenem, reference compound]
[1]; [7]
  MIC: 0.12 µg/mL (≈ 0.313 µM)
[1]; Staphylococcus aureus, ATCC29213, read-out: MIC 100%, Study LGC277937, 100%
  MIC: 0.12 µg/mL (≈ 0.313 µM)
[1]; Staphylococcus aureus, ATCC29213, read-out: MIC 100%, Study LGC279800, 100%
  MIC: ≤ 0.06 µg/mL
[1]; Staphylococcus aureus, ATCC29213, read-out: MIC 100%, Study LGC281440, 100%
  MIC: 0.12 µg/mL (≈ 0.313 µM)
[1]; Staphylococcus aureus, ATCC29213, read-out: MIC 100%, Study LGC282160, 100%
  MIC: ≤ 0.06 µg/mL
[1]; Staphylococcus aureus, ATCC29213, read-out: MIC 100%, Study LGC282623, 100%
  MIC: 0.12 µg/mL (≈ 0.313 µM)
[1]; Staphylococcus aureus, ATCC29213, read-out: MIC 100%, Study LGC283932, 100%
  MIC: 0.12 µg/mL (≈ 0.313 µM)
[1]; Staphylococcus aureus, ATCC29213, read-out: MIC 100%, Study LGC284200, 100%
  MIC: 0.12 µg/mL (≈ 0.313 µM)
[1]; Staphylococcus aureus, ATCC29213, read-out: MIC 100%, Study LGC284879, 100%
  MIC: 0.12 µg/mL (≈ 0.313 µM)
[1]; Staphylococcus aureus, ATCC29213, read-out: MIC 100%, Study LGC285582, 100%
  MIC: 0.12 µg/mL (≈ 0.313 µM)
[1]; Staphylococcus aureus, ATCC29213, read-out: MIC 100%, Study LGC286210, 100%
  MIC: 0.25 µg/mL (≈ 0.652 µM)
[1]; Staphylococcus aureus, ATCC29213, read-out: MIC 100%, Study LGC293598, 100%
  MIC: 0.12 µg/mL (≈ 0.313 µM)
[1]; Staphylococcus aureus, ATCC29213, read-out: MIC 100%, Study LGC294355, 100%
  MIC: ≤ 0.06 µg/mL
[1]; Staphylococcus aureus, ATCC29213, read-out: MIC 100%, Study LGC295147, 100%
  MIC: 0.12 µg/mL (≈ 0.313 µM)
[1]; Staphylococcus aureus, ATCC29213, read-out: MIC 100%, Study LGC296813, 100%
  MIC: ≤ 0.06 µg/mL
[1]; Staphylococcus aureus, ATCC29213, read-out: MIC 100%, Study LGC299544, 100%
  MIC: 0.12 µg/mL (≈ 0.313 µM)
[1]; Staphylococcus aureus, ATCC29213, read-out: MIC 100%, Study LGC301026, 100%
  MIC: 0.12 µg/mL (≈ 0.313 µM)
[1]; Staphylococcus aureus, ATCC29213, read-out: MIC 100%, Study LGC308175, 100%
  MIC: ≤ 0.06 µg/mL
[1]; Staphylococcus aureus, ATCC29213, read-out: MIC 100%, Study ROC003, 100%
  MIC: ≤ 0.06 µg/mL
[1]; Staphylococcus aureus, ATCC29213, read-out: MIC 100%, Study ROC004, 100%
  MIC: ≤ 0.06 µg/mL
[1]; Staphylococcus aureus, ATCC29213, read-out: MIC 100%, Study ROC005, 100%
  MIC: ≤ 0.06 µg/mL
[1]; Staphylococcus aureus, ATCC29213, read-out: MIC 100%, Study ROC006, 100%
  MIC: 0.12 µg/mL (≈ 0.313 µM)
[1]; Staphylococcus aureus, ATCC29213, read-out: MIC 100%, Study ROC007, 100%
  MIC: 0.12 µg/mL (≈ 0.313 µM)
[1]; Staphylococcus aureus, ATCC29213, read-out: MIC 100%, Study ROC008, 100%
  MIC: 0.12 µg/mL (≈ 0.313 µM)
[1]; Staphylococcus aureus, ATCC29213, read-out: MIC 100%, Study ROC009, 100%
  MIC: ≤ 0.06 µg/mL
[1]; Staphylococcus aureus, ATCC29213, read-out: MIC 100%, Study ROC010, 100%
  MIC: ≤ 0.06 µg/mL
[1]; Staphylococcus aureus, ATCC29213, read-out: MIC 100%, Study ROC012, 100%
  MIC: ≤ 0.06 µg/mL
[1]; Staphylococcus aureus, ATCC29213, read-out: MIC 100%, Study ROC013, 100%
  MIC: 0.12 µg/mL (≈ 0.313 µM)
[6]; Study LGC277937
  MIC 100%: >64 µg/mL
[6]; Study LGC279800
  MIC 100%: >64 µg/mL
[6]; Study LGC281440
  MIC 100%: >64 µg/mL
[6]; Study LGC282160
  MIC 100%: >64 µg/mL
[6]; Study LGC282623
  MIC 100%: >64 µg/mL
[6]; Study LGC283932
  MIC 100%: >64 µg/mL
[6]; Study LGC284200
  MIC 100%: >64 µg/mL
[6]; Study LGC284879
  MIC 100%: >64 µg/mL
[6]; Study LGC285582
  MIC 100%: >64 µg/mL
[6]; Study LGC286210
  MIC 100%: >64 µg/mL
[6]; Study LGC293598
  MIC 100%: >64 µg/mL
[6]; Study LGC294355
  MIC 100%: >64 µg/mL
[6]; Study LGC295147
  MIC 100%: >64 µg/mL
[6]; Study LGC296813
  MIC 100%: >64 µg/mL
[6]; Study LGC299544
  MIC 100%: >64 µg/mL
[6]; Study LGC301026
  MIC 100%: >64 µg/mL
[6]; Study LGC308175
  MIC 100%: >64 µg/mL
[6]; Study ROC003
  MIC 100%: >64 µg/mL
[6]; Study ROC004
  MIC 100%: >64 µg/mL
[6]; Study ROC005
  MIC 100%: >64 µg/mL
[6]; Study ROC006
  MIC 100%: >64 µg/mL
[6]; Study ROC008
  MIC 100%: >64 µg/mL
[6]; Study ROC009
  MIC 100%: >64 µg/mL
[6]; Study ROC010
  MIC 100%: >64 µg/mL
[6]; Study ROC013
  MIC 100%: >64 µg/mL
[2]; ATCC90028
  MIC: > 64 µg/mL
[2]; ATCC90028, read-out: MIC 100%
  MIC: > 64 µg/mL
[4]; Escherichia coli, ATCC25922
  MIC: ≤ 0.06 µg/mL
[4]; Escherichia coli, ATCC25922, read-out: MIC 100%
  MIC: ≤ 0.06 µg/mL
[4]; Study LGC277937
  MIC 100%: ≤0.06 µg/mL
[4]; Study LGC279800
  MIC 100%: ≤0.06 µg/mL
[4]; Study LGC281440
  MIC 100%: ≤0.06 µg/mL
[4]; Study LGC282160
  MIC 100%: ≤0.06 µg/mL
[4]; Study LGC282623
  MIC 100%: ≤0.06 µg/mL
[4]; Study LGC283932
  MIC 100%: ≤0.06 µg/mL
[4]; Study LGC284200
  MIC 100%: ≤0.06 µg/mL
[4]; Study LGC284879
  MIC 100%: ≤0.06 µg/mL
[4]; Study LGC285582
  MIC 100%: ≤0.06 µg/mL
[4]; Study LGC286210
  MIC 100%: ≤0.06 µg/mL
[4]; Study LGC293598
  MIC 100%: ≤0.06 µg/mL
[4]; Study LGC294355
  MIC 100%: ≤0.06 µg/mL
[4]; Study LGC295147
  MIC 100%: ≤0.06 µg/mL
[4]; Study LGC296813
  MIC 100%: ≤0.06 µg/mL
[4]; Study LGC299544
  MIC 100%: ≤0.06 µg/mL
[4]; Study LGC301026
  MIC 100%: ≤0.06 µg/mL
[4]; Study LGC308175
  MIC 100%: ≤0.06 µg/mL
[4]; Study ROC003
  MIC 100%: ≤0.06 µg/mL
[4]; Study ROC004
  MIC 100%: ≤0.06 µg/mL
[4]; Study ROC005
  MIC 100%: ≤0.06 µg/mL
[4]; Study ROC006
  MIC 100%: ≤0.06 µg/mL
[4]; Study ROC007
  MIC 100%: ≤0.06 µg/mL
[4]; Study ROC008
  MIC 100%: ≤0.06 µg/mL
[4]; Study ROC009
  MIC 100%: ≤0.06 µg/mL
[4]; Study ROC010
  MIC 100%: ≤0.06 µg/mL
[4]; Study ROC013
  MIC 100%: ≤0.06 µg/mL
